Several values for one entry are separate records, joined by “and”; a condition that tells them apart may be missing. Equal values may be shown once.
Legend:
U937 cells [1] = assay: Soft agar clonogenic assay in U937 cells; format: cell-based, human; conditions: agents alone, UCN-01 150 nM, PD184352 10 μM, 18 h
Description: Clonogenic Assay and Cell Proliferation Assays. Colony formation after drug treatment was evaluated using a soft agar cloning assay as described previously (Blasina et al, 1999). Briefly, cells were washed three times with serum-free RPMI medium. Subsequently, 500 cells/well were mixed with RPMI medium con-taining 20% FBS and 0.3% agar and plated on 12-well plates (three wells/ condition). The plates were then transferred to a 37° C./5% CO2, fully humid-ified incubator. After 10 days of incubation, colonies, consisting of groups 5 of 50 cells, were scored using an Olympus Model CK inverted microscope, and colony formation for each condition was calculated in relation to values obtained for untreated control cells. For cell viability assays, CellTiter 96 AQueous One Solution (Promega, Madison, Wis.) was used according to the manufacturer's instructions, and the absorbance at 490 nm was recorded using a 96-well plate reader (Molecular Devices, Sunnyvale, Calif.).

MCF7 cells = conditions: MCF7, 24 h; with 150 nM UCN-01; PD184352 10 μM, U0126 5 μM; FIG. 8B
Description: Terminal Uridyl-Nucleotide End Labeling (TUNEL) for apoptosis. […] Cells were isolated 24 h after irradiation by trypsinizationi followed by centrifugation onto glass slides (cytospin). Terminal Uridyl-Nucleotide End Labeling (TUNEL) was performed on these cells as described previously [Wang et al., 1999; Park et al., 1999]. Randomly selected fields of fixed cells (150 cells per field, n=5 per slide) were counted initially using propidium iodide counter stain, followed by examination and counting of TUNEL positive staining cells of the same field under FITC/fluorescence light.

U937 cells [2] = assay: S-phase content by BrdUrd incorporation in U937 cells; format: cell-based, human; conditions: 12 and 18 h, UCN-01 150 nM, PD184352 10 μM, FIG. 3B
Description: (§1) Cell Cycle Analysis and S-phase Content. Cells (2×10^6) were pelleted at 4° C., resuspended, fixed at 4° C. with 67% ethanol overnight, and treated on ice with a propidium iodide solution containing 3.8 mM Na citrate, 0.5 mg/ml RNase A (Sigma Chemical Co.), and 0.01 mg/ml propidium iodide (Sigma Chemical Co.) for 3 h. Cell cycle analysis was performed by flow cytometry using Verity Winlist software (Topsham, Me.). Incorporation of BrdUrd was monitored to evaluate S-phase content. For each condition, 2 3 10 6 cells (cell density 5 5 3 10 5 /ml) were incubated with […] BrdUrd for 30 min at 37° C. After washing twice with 1% BSA/PBS, the cells were resuspended in 70% ethanol and fixed for 30 min on ice. The BrdUrd-labeled cells were denatured and nuclei released by incubation with 2 N HCl/0.5% Triton X-100 for 30 min at room temperature. After centrifugation, the pellet was resuspended in 0.1 M […] (pH 8.5) to neutralize the acid. […] After washing once with 0.5% Tween 20/1% BSA/PBS, the cells were resuspended in PBS containing […] propiditun iodide and analyzed by flow cytometry. The percentage of S-phase cells was determined by measuring BrdUrd FITC-positive part in a dot plot of FL-3 (red fluorescence) against FL-1 (green fluorescence).

U937 cells [3] = assay: Cell cycle analysis (propidium iodide flow cytometry) in U937 cells; format: cell-based, human; conditions: 18 h, UCN-01 150 nM, PD184352 10 μM, FIG. 3A
Description: as §1

U937 cells [4] = assay: Loss of mitochondrial membrane potential (reduced DiOC6 uptake, flow cytometry) in U937 cells; format: cell-based, human; conditions: 18 h, PD184352 10 μM, GFX 1 μM, safingol 2 μM, mean ± SD
Description: (§2) Experimental Format. All of the experiments were performed using logarithmically growing cells (3-5×10^5 cells/ml). Cell suspensions were placed in sterile 25 cm^2 T-flasks (Corning, Corning, N.Y.) and incubated with MEK or PKC inhibitors for 30 min at 37° C. At the end of this period, UCN-01 (or in some cases, caffeine) was added to the suspension, and the flasks were placed in 37° C./5% CO2 incubator at various intervals, generally 18 h. In some studies, the p38 MAP kinase inhibitor SB203580 was added concurrently with MEK inhibitors. After drug treatment, cells were harvested and subjected to further analysis as described below.
Analysis of Mitochondrial Membrane Potential (ΔΨm). Cells 2×10^5 were incubated with 40 nM DiOC6 (Molecular Probes Inc., Eugene, Oreg.) in PBS at 37° C. for 20 min and then analyzed by flow cytometry as described previously (Wang et al., 1999).

U937 cells [5] = assay: Morphological assessment of apoptosis (Wright-Giemsa cytospins) in U937 cells; format: cell-based, human; conditions: U937 cells; for apoptosis (cell death): UCN-01 150 nM, FIG. 1A
Description: as §2
Analysis of Apoptosis. […] For each condition, 5 to 10 randomly selected fields/condition were evaluated, encompassing at least 500 cells (Vrana and Grant, 2001). To confirm the results of morphological analysis, in some cases cells were also evaluated by TUNEL staining (Gorczyca et al., 1993) and assessment of oligonucleosomal DNA fragmentation of total DNA. DNA fragmentation was analyzed by 1.8% agarose gel electrophoresis as described previously (Jarvis et al., 1994). For TUNEL staining, cytocentrifuge preparations were obtained and fixed with 4% formaldehyde. The slides were treated with acetic acid/ethanol (1:2), stained with terminal transferase reaction mixture containing terminal transferase reaction buffer, 0.25 units/ ml terminal transferase, 2.5 mM CoCl2, and 2 pmol fluorescein-12-dUTP (Boehringer Mannheim, Indianapolis, Ind.), and visualized using fluorescence microscopy.

[6] = Phase I and pharmacokinetic studies (Fuse et al., 1999); cited from earlier work
T47D cells = assay: Colony forming (clonogenic) assay in T47D cells; format: cell-based, human; conditions: mock irradiated, 25 μM PD98059, 150 nM UCN-01, replated 48 h, ± SEM
Description: (§3) Colony forming (clonogenic) assay. Cells were plated 36 h prior to experimentation. Cells were pre-treated with MEK1/2 inhibitor as indicated, 2 h prior to exposure. Cells were irradiated (2 Gy). After a further 48 h, cells were isolated by tryptic digestion and single cell suspensions plated on Linbro® plates at densities of 500 cells/well and 1000 cells/well. Colony formation was defined as a colony of 50 cells or greater, 10 days after plating.

MDA-MB-231 cells = assay: Colony forming (clonogenic) assay in MDA-MB-231 cells; format: cell-based, human; conditions: MDA-MB-231 (MDA), 25 μM PD98059, 150 nM UCN-01, replated 48 h, ± SEM
Description: as §3

## O=C(NOCC1CC1)c1ccc(F)c(F)c1Nc1ccc(I)cc1Cl [PD184352]
U937 cells [1]
  reduction of clonogenic survival (colony formation): 40%
MCF7 cells
  apoptosis in combination with UCN-01: enhanced apoptosis
U937 cells [2]
  number of BrdUrd-positive (S-phase) cells: modest decline
U937 cells [3]
  cell cycle distribution: little effect on the cell cycle distribution
U937 cells [4]
  "Low" DiOC6 (% cells): 12.1 ± 0.2% and 14.7 ± 1.0%
U937 cells [5]; 18 h, PD184352 10 μM, GFX 1 μM, safingol 2 μM, mean ± SD
  Apoptotic cells (%): 1.8 ± 0.1% and 2.1 ± 0.1%
U937 cells [5]; 18 h, PD184352 10 μM
  apoptosis (cell death): 10%

## CN[C@@H]1C[C@H]2O[C@@](C)([C@@H]1OC)n1c3ccccc3c3c4c(c5c6ccccc6n2c5c31)C(=O)N[C@H]4O [UCN-01, 7-hydroxystaurosporine]
U937 cells [1]
  reduction of clonogenic survival (colony formation): very modest effect
[6]
  plasma half-life: very long plasma half-life
T47D cells
  clonogenic survival (colonies, normalized to control unirradiated cells = 100%): 103 ± 8%
U937 cells [2]
  number of BrdUrd-positive (S-phase) cells: no effect
U937 cells [3]
  cell cycle distribution: primarily depleted the G2 M population
U937 cells [5]; 18 h, PD184352 10 μM
  apoptosis (cell death): 10%
U937 cells [5]; 24 hr, 100 nM UCN-01, 10 μM LY294002, FIG. 14
  percentage of apoptotic cells: about 20%
MDA-MB-231 cells; 2 Gy
  clonogenic survival (colonies, normalized to control unirradiated cells = 100%): 55 ± 2%
MDA-MB-231 cells; mock irradiated
  clonogenic survival (colonies, normalized to control unirradiated cells = 100%): 97 ± 3%

— patent publication US20040191168A1, “Tumor cell killing by cell cycle checkpoint abrogation combined with Inhibition of the classical mitogen activated protein (map) kinase pathway” (priority 2000, published 2004)
